According to paper PMC3500524 (Cancer cell, 2012):
One block for each compound: values may come before it.

Assays:
H1299 cells [1] = experiment: cell proliferation of H1299 cells; format: cell-based, human
H1299 xenograft = H1299 xenograft in nude mice; format: in vivo, mouse
H1299 cells [2] = experiment: metabolism of H1299 cells under inhibitor treatment; format: cell-based, human
[3] = test system: primary leukemia cells from human patients; experiment: treatment of primary leukemia cells from human patients; format: cell-based
[4] = test system: human dermal fibroblasts (HDF), human foreskin fibroblasts (HFF), HaCaT keratinocyte cells, melanocyte PIG1 cells; experiment: cell proliferation / viability of normal proliferating human cells; format: cell-based
[5] = test system: diverse human cancer and leukemia cells; experiment: cell proliferation / viability by trypan blue exclusion; format: cell-based
nude mice = experiment: toxicity studies in nude mice; format: in vivo
[6] = test system: human leukemia KG1a cells; experiment: proliferation of KG1a cells; format: cell-based; details: dose-dependent
6PGD [7] = biological target: T1, 6PGD (Homo sapiens, UniProt P52209); experiment: in vitro 6PGD enzyme activity assay; format: biochemical; details: H1299 cell lysates or r6PGD
T1 sequence (P52209 1-483): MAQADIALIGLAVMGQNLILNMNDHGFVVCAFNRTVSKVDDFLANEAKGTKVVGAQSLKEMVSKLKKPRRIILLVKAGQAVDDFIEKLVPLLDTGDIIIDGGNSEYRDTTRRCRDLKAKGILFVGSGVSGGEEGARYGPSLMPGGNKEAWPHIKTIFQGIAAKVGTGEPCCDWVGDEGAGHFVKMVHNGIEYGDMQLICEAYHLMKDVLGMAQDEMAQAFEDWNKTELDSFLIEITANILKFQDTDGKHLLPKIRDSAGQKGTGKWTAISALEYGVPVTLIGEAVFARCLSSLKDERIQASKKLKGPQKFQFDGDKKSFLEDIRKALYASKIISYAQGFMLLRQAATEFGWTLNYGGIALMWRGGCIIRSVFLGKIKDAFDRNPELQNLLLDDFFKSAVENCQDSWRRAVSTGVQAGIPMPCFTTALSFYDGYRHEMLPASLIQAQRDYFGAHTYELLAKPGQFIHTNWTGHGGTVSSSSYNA

PHGDH = biological target: T2, PHGDH (Homo sapiens, UniProt O43175); experiment: PHGDH enzyme activity assay; format: biochemical
T2 sequence (O43175 1-533): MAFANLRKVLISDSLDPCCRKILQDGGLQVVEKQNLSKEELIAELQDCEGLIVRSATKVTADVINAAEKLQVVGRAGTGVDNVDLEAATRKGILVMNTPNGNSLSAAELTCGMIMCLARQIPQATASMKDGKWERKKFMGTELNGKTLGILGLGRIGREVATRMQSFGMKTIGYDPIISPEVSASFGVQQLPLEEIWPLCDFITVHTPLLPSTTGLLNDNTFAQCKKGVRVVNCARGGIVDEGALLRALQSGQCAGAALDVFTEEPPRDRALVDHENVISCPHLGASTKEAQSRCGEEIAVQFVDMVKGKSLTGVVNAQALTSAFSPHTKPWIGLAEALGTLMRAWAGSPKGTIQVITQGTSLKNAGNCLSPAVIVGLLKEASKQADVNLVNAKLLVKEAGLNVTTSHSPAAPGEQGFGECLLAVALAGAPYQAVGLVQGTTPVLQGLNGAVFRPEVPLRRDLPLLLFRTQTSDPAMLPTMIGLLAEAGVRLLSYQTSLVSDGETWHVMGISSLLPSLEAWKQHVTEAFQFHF

PGAM1 = PGAM1 (Homo sapiens, UniProt P18669); details: intact cells, ref Evans et al., 2007, 2005; cited from earlier work
Sequence of PGAM1 (P18669 whole entry): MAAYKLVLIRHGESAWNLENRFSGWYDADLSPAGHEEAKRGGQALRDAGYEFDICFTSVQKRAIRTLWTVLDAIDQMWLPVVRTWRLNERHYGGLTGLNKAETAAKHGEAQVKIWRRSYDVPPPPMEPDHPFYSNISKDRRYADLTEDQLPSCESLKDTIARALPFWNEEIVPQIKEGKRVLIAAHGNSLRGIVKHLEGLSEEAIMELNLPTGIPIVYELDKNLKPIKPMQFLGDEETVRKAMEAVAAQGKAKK

cancer cells = details: ref Engel et al., 2004; Evans et al., 2005; cited from earlier work
6PGD [8] = biological target: T1, 6PGD; experiment: 6PGD enzyme kinetics
6PGD [9] = biological target: T1, 6PGD; experiment: thermal melt shift assay of 6PGD with ligand; format: binding; details: read-out: Kd for protein (6PGD)-ligand interaction
G6PD = G6PD (Homo sapiens, UniProt P11413); experiment: in vitro G6PD enzyme activity assay; format: biochemical; details: increasing concentrations; H1299 cell lysates or rG6PD
Sequence of G6PD (P11413 whole entry): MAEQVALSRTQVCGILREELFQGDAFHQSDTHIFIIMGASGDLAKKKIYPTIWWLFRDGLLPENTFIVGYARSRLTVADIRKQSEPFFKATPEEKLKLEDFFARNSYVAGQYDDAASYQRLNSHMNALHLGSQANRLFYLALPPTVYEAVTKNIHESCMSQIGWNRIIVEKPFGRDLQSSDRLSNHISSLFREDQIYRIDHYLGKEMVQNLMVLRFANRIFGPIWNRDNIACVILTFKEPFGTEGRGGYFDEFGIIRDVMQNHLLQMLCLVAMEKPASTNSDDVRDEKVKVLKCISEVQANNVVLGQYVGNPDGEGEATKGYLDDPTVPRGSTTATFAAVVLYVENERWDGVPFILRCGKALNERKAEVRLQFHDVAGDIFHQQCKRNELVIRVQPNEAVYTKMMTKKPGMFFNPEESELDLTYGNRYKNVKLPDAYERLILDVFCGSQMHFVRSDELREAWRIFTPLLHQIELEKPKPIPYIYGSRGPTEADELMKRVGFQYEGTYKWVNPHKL

[10] = biological target: purified human PGAM1 proteins (Homo sapiens, UniProt P18669); experiment: PGAM1 enzyme assay; format: biochemical; details: comparison among alizarin and derivatives
Sequence of purified human PGAM1 proteins (P18669 whole entry): as the sequence (P18669 whole entry) above

[11] = primary leukemia cells, representative AML patient
[12] = samples from 7 (1 CML and 6 AML) out of 8 leukemia patients

Compound: O=C1c2ccccc2C(=O)c2c1cc(S(=O)(=O)Nc1ccc(C(F)(F)F)cc1)c(O)c2O [PGMI-004A]
cell proliferation (H1299 cells [1]): reduced | PGAM1 enzyme activity in resected tumors (H1299 xenograft; 100mg/kg/day): effectively inhibits PGAM1 enzyme activity in tumors | tumor growth and tumor size (H1299 xenograft; 100mg/kg/day i.p., 21 days, vs vehicle): significantly decreased tumor growth and tumor size | 2-PG levels (H1299 cells [2]): decreased 2-PG | 3-PG levels (H1299 cells [2]): increased 3-PG levels | biosynthesis of RNA (H1299 cells [2]): reduced biosynthesis | biosynthesis of lipids (H1299 cells [2]): reduced biosynthesis of lipids | intracellular ATP levels (H1299 cells [2]): no significant effect on intracellular ATP levels | lactate production (H1299 cells [2]): significantly reduced lactate production | oxidative PPP flux (H1299 cells [2]): decreased oxidative PPP flux | 2-PG levels [3, 11]: decreased 2-PG levels | 3-PG levels [3, 11]: increased 3-PG | PGAM1 activity [3, 12]: reduced PGAM1 activity | cell viability [3, 12]: decreased cell viability | lactate production [3, 12]: reduced | non-specific toxicity (cell proliferation) in normal cells [4]: minimal non-specific toxicity | cell proliferation [5]: decreased cell proliferation | histopathological analyses vs vehicle-treated group (nude mice): no notable differences | tolerability of chronic injection (nude mice; 100mg/kg/day intraperitoneally, 4 weeks): well-tolerated dose | body weight, complete blood counts (CBC), hematopoietic properties (nude mice; 100mg/kg/day, 7 days): did not result in significant alteration

Compound: O=C1c2ccccc2C(=O)c2c1ccc(O)c2O [alizarin, 1,2-dihydroxyanthraquinone]
cell proliferation [6]: decreased proliferation

Compound: C#CCCCC(=O)OC(C)(C)C1CCC2(CO2)C(OC(=O)NC(Cc2c[nH]c3ccccc23)C(=O)OCc2ccccc2)C1 (stereo not shown) [MJE3]
PGAM1 activity (PGAM1): specifically inhibits PGAM1 activity exclusively in intact cells | cancer cell proliferation (cancer cells): attenuates cancer cell proliferation

More lines, main results first:

6PGD enzyme activity (6PGD [7]; 2-PG): did not affect 6PGD enzyme activity | PHGDH enzyme activity (PHGDH; 2-PG ~45μM or ~60μM, H1299 PGAM1 knockdown cell lysates): higher PHGDH enzyme activity
Compound: O=C(O)[C@@H](CO)OP(=O)(O)O [2-PG, 2-phosphoglycerate]
PHGDH activity (PHGDH; 2-PG ~15μM): did not significantly affect PHGDH activity | enzyme activity of recombinant PHGDH (rPHGDH) (PHGDH; increasing concentrations of 2-PG): increased enzyme activity of recombinant PHGDH

mode of 6PGD inhibition (6PGD [8]; Lineweaver-Burk plot, 3-PG ~250μM, 6-PG ~35μM): competitive inhibitor of 6PGD | Ki (6PGD [8]; read-out: inhibition constant (Ki) of 6PGD, Dixon plot): 489 ± 13 µM | 6PGD enzyme activity (6PGD [7]; 3-PG ~250μM): decreased enzyme activity of 6PGD | Kd (6PGD [9]): 460 ± 40 µM
Compound: O=C(O)[C@H](O)COP(=O)(O)O [3-PG, 3-phosphoglycerate]
6PGD enzyme activity (6PGD [7]; 3-PG ~60μM): do not significantly affect 6PGD enzyme activity | G6PD activity (G6PD): did not significantly affect G6PD activity

relative potency as PGAM1 inhibitor in vitro [10]: more potent PGAM1 inhibitor
Compound: O=C1c2ccccc2C(=O)c2c1cc(S(=O)(=O)O)c(O)c2O [alizarin Red S]
